{"source": "patent US6663881B2", "about": "(priority 1993, dated 2003)", "key": {"[1]": {"tested_on": "Vascular smooth muscle (BO54) cells", "format": "cell-based, baboon"}, "[2]": {"assay": "7 day intravenous toxicity study in rats (Table 11)", "format": "in vivo", "conditions": "10 μg/ml IV four times a day for 7 days (800 μg/kg daily)", "procedure": "To determine the toxicity of cytochalasin B, rats (4 male and 4 female) were injected with 10 μg/ml cytochalasin B four times a day for 7 days (Table 11). Data regarding body weight changes, food consumption, food efficiency, hematology parameters, coagulation parameters, serum chemistry parameters, and gross necropsy findings were collected. […] There were no gross or microscopic changes detected in the heart to account for the elevation. Thus, daily administration of cytochalasin B to rats at a dose of 800 μg/kg (for a total injected dose of 5600 μg/kg) may have an effect on heart weight of female (but not male) rats. However, clotted blood was not routinely removed from the heart lumens prior to weighing the heart."}, "[3]": {"tested_on": "swine coronary arteries traumatized by embolectomy or over-sized PTCA balloon", "assay": "Swine coronary artery study, MIC catheter infusion, morphometry at 4 weeks (Table 15)", "format": "in vivo", "conditions": "8.0 μg/ml", "procedure": "Swine coronary arteries were also traumatized by embolectomy or over-sized PTCA balloon, and then 8-16 ml of cytochalasin B at 8.0 μg/ml was infused into the arterial wall with a MIC catheter to achieve a therapeutic dose. Controls included a diluent control and a traumatized untreated control, and all animals were sacrificed 4 weeks after intervention and coronary arteries were fixed by perfusion. Morphometry was performed on selected sections from proximal, treated and distal segments of coronary arteries (Table 15)."}, "[4]": {"tested_on": "balloon traumatized pig femoral artery", "assay": "Sustained release adventitial wraps on balloon traumatized pig femoral artery (Table 16, Group 12)", "format": "in vivo", "conditions": "Group 12: 30% wt/wt loaded silicone wraps", "excerpt": "To determine the efficacy of the local, sustained release dosage forms of cytochalasin B or taxol to inhibit restenosis, cytochalasin B or taxol in a supporting structure, e.g., a “wrap,” was applied to the adventitial tissue surrounding a balloon traumatized rabbit carotid artery (Groups 1-11) or a balloon traumatized pig femoral artery (Group 12) (Table 16).\nWhile there was intimal proliferation in the arteries 3 weeks later, the proliferation was still less than the proliferation observed for the controls."}, "[5]": {"tested_on": "balloon traumatized left carotid artery", "assay": "Inter-arterial infusion of crystalline cytochalasin B in balloon traumatized rat carotid artery", "format": "in vivo, Sprague-Dawley rats", "procedure": "Another study employed twenty, male, Sprague-Dawley rats. The rats underwent balloon trauma to their left carotid artery, followed by inter-arterial infusion of a solution containing 1 mg crystalline cytochalasin B in […] vehicle (Hanks sterile salt solution with 0.5% Cremophor) or a diluent (saline) control. Animals were sacrificed immediately after infusion, and 2, 4, 7 and 14 days post-trauma and infusion. Post-sacrifice, the left and the right (control) carotid arteries were removed. Samples of arteries were obtained for quantitation of ^3H-cytochalasin B by oxidation and scintillation counting, histopathology, autoradiography and vascular morphometry. Histopathology documented uniform, circumferential balloon trauma in the arterial wall of the left carotid arteries."}, "[6]": {"tested_on": "Vascular smooth muscle cells (BO54)", "assay": "Scratch-migration assay", "format": "cell-based, baboon", "parameters": "key: −=no migration; +1=minimal; +2=mild; +3=moderate; +4=marked (maximum density; limit of cell contact inhibition) migration", "procedure": "Scratch assays to determine the extent of smooth muscle cell migration inhibition by cytochalasin B were performed in accordance with the following protocol:\nVascular smooth muscle cells (BO54) were derived from explants of baboon aortic smooth muscle, as described in Example 10. The cells were grown in flat bottom, six well tissue culture plates, which hold about 5 ml of medium. The vascular smooth muscle cells were plated at 200,000 cells/well and placed at 37° C. in a humidified 5% CO2 incubator for 18 hours. The wells were then scratched with a sterile portion of a single edge razor blade that was held by clamp or pliers and was brought aseptically into contact with the bottom of the well at a 90° angle. The cells from a small area along the scratch were removed by a sterile cotton tipped applicator while the blade was in contact with the bottom of the well. After incubation, the presence of cells in the “scratched” area is indicative of cell migration across the scratch line.\nBriefly, a stock solution of cytochalasin B (Sigma Chemical Co.) in dimethyl sulfoxide (DMSO) at 1 mg/ml was prepared. Test dilutions of cytochalasin B or control medium were added. Each experiment included two sets of plates:\nA set: Test agent exposure for 1, 3, 6, 8 and 10 days only; and\nB set: Test agent exposure for 1, 3, 6, 8 and 10 days, followed by a seven day recovery time with control medium.\nBoth sets of plates were fixed (10% formalin in PBS) and stained (0.02% crystal violet) at the end of the timed exposures. Test concentrations for cytochalasin B were 1, 0.1 and 0.01 μg/ml, and a negative medium control was included. Fresh medium and drug were supplied 3 times per week.\nIn this Table, “M” indicates Migration Grade, wherein −=no migration; +1=minimal; +2=mild; +3=moderate; and +4=marked (maximum density; limit of cell contact inhibition) migration of vascular smooth muscle cells into the cleared area adjacent to the scratch. In this Table, “T” denotes a morphological Toxicity Grade, wherein −=no toxicity; +1=minimal; +2=mild; +3=moderate; and +4=marked toxicity. The migration results are expressed as “Grade in the Cleared Area of the Well/Grade in an Undisturbed Region of the Well.” The toxicity values represent a grade for all cells in each well."}}}
{"smiles": "C=C1[C@@H](C)[C@H]2[C@H](Cc3ccccc3)NC(=O)[C@]23OC(=O)/C=C/[C@H](O)CCC[C@@H](C)C/C=C/[C@H]3[C@@H]1O", "note": "[cytochalasin B]", "values": [{"measurement": "MED, DNA assay", "setting": "[1]; 5 minute exposure", "result": 10, "unit": "µg/mL"}, {"measurement": "DNA synthesis inhibition compared with protein synthesis inhibition", "setting": "[1]; 24 hour assays, 5% FBS, FIGS. 10A-10D", "result": "to a greater extent than they inhibited protein synthesis"}, {"measurement": "MED, DNA synthesis assay", "setting": "[1]; 24 hour exposure", "result": 0.1, "unit": "µg/mL"}, {"measurement": "adverse effect", "setting": "[2]", "result": "elevation of the mean relative heart weight in treated female animals"}, {"measurement": "arterial remodeling (area bounded by the external elastic lamina)", "setting": "[3]", "result": "trend toward beneficial arterial remodeling"}, {"measurement": "luminal area", "setting": "[3]", "result": "did not result in a statistically significant increase in luminal area"}, {"measurement": "intimal proliferation", "setting": "[4]", "result": "significantly inhibited intimal proliferation for the first two weeks"}, {"measurement": "amount present over the treated length of artery", "setting": "[5]; day 0", "result": "approximately 8 ug"}, {"measurement": "amount present over the treated length of artery", "setting": "[5]; day 2", "result": "less than 2 ng"}, {"measurement": "crystals by autoradiography", "setting": "[5]; day 4", "result": "not detectable by autoradiography"}, {"measurement": "mean luminal area and neointimal area vs diluent control", "setting": "[5]; five treated rats", "result": "higher mean luminal area and a smaller neointimal area"}, {"measurement": "neointima formation vs diluent treated rats", "setting": "[5]; morphometric analysis", "result": "no statistically significant reduction in neointima formation"}, {"measurement": "Toxicity Grade", "setting": "[6]; 7-day Recovery Post Exposure, Day 1, 1.0 μg/mL", "result": "+2"}, {"measurement": "Toxicity Grade", "setting": "[6]; 7-day Recovery Post Exposure, Day 3, 1.0 μg/mL", "result": "+1"}, {"measurement": "Toxicity Grade", "setting": "[6]; 7-day Recovery Post Exposure, Day 6, 1.0 μg/mL", "result": "+3"}, {"measurement": "Toxicity Grade", "setting": "[6]; 7-day Recovery Post Exposure, Day 8, 1.0 μg/mL", "result": "+3"}, {"measurement": "Toxicity Grade", "setting": "[6]; 7-day Recovery Post Exposure, Day 10, 1.0 μg/mL", "result": "+3"}, {"measurement": "Toxicity Grade", "setting": "[6]; Continuous Exposure, Day 1, 1.0 μg/mL", "result": "+3"}, {"measurement": "Toxicity Grade", "setting": "[6]; Continuous Exposure, Day 3, 0.1 μg/mL", "result": "+1"}, {"measurement": "Toxicity Grade", "setting": "[6]; Continuous Exposure, Day 3, 1.0 μg/mL", "result": "+3"}, {"measurement": "Toxicity Grade", "setting": "[6]; Continuous Exposure, Day 6, 0.1 μg/mL", "result": "+1"}, {"measurement": "Toxicity Grade", "setting": "[6]; Continuous Exposure, Day 8, 0.1 μg/mL", "result": "+1"}, {"measurement": "Toxicity Grade", "setting": "[6]; Continuous Exposure, Day 10, 0.1 μg/mL", "result": "+1"}]}
